# Experimental data published in ChEMBL document CHEMBL1128563, “Quantitative structural activity relationship study of bis-tetraazacyclic compounds. A novel series of HIV-1 and HIV-2 inhibitors” (J Med Chem, 1995).
# Experiments:
# HuT78 = test: Cellular cytotoxicity against HUT-78 cells.; format: functional; details: Homo sapiens
# [1] = tested on: Human immunodeficiency virus 1; test: Antiretroviral activity against HIV-1 infected HUT-78 cells.; format: functional, organism-based; details: Human immunodeficiency virus 1, HuT78; read-out: Log 1/EC50 (converted)
# [2] = tested on: Human immunodeficiency virus 2; test: Antiretroviral activity against HIV-2 infected HUT-78 cells.; details: Human immunodeficiency virus 2, HuT78; read-out: Log 1/EC50 (converted)
# [3] = tested on: Human immunodeficiency virus 1; test: Inhibition of syncytium formation using HIV-1 IIIB strain gaint cell inhibition assay.; format: functional, organism-based; details: read-out: Log 1/EC50 (converted)
SMILES,EC50 [1] [nM],EC50 [2] [nM],EC50 [3] [nM],CC50 (HuT78) [nM]
c1cc(CN2CCCNCCNCCNCCC2)ccc1CN1CCCNCCCNCCCNCCC1,316,,,121000
Cc1cc(CN2CCCNCCNCCCNCC2)c(C)cc1CN1CCCNCCNCCCNCC1,7.59,1.29,33.1,250000
c1ccc2c(CN3CCCNCCNCCCNCC3)ccc(CN3CCCNCCNCCCNCC3)c2c1,55,38.9,63.1,56000
COc1cc(CN2CCCNCCNCCCNCC2)c(OC)cc1CN1CCCNCCNCCCNCC1,7.08,7.94,13.2,250000
CCN1CCCN(CC)CCN(Cc2ccc(CN3CCCN(CC)CCN(CC)CCCN(CC)CC3)cc2)CCCN(CC)CC1,7760,,33900,342000
Clc1cc(CN2CCCNCCNCCCNCC2)c(Cl)cc1CN1CCCNCCNCCCNCC1,10.7,2.45,331,59000
c1cc(CN2CCCNCCNCCNCCC2)ccc1CN1CCCNCCNCCNCCC1,25.1,58.9,,500000
Fc1c(F)c(CN2CCCNCCNCCCNCC2)c(F)c(F)c1CN1CCCNCCNCCCNCC1,7.94,7.94,31.6,48000
c1cc(CC2CNCCNCCCNCCNC2)ccc1CC1CNCCNCCCNCCNC1,501,676,,406000
c1cc(CCCN2CCCNCCNCCCNCC2)ccc1CCCN1CCCNCCNCCCNCC1,398,,,283000
C(CCCN1CCCNCCNCCCNCC1)CCN1CCCNCCNCCCNCC1,692,708,,307000
C1CNCCNCCCN(CCCN2CCCNCCNCCCNCC2)CCNC1,138,,12300,622000
c1cc(CN2CCNCCCNCCNCC2)ccc1CN1CCNCCCNCCNCC1,166,234,,216000
c1cc(CN2CCCNCCCNCCCNCCC2)ccc1CN1CCCNCCCNCCCNCCC1,9120,,,49000
C1CNCCNCCCN[C@H]([C@@H]2CNCCCNCCNCCCN2)CNC1,158,,,369000
Clc1c(Cl)c(CN2CCCNCCNCCCNCC2)c(Cl)c(CN2CCCNCCNCCCNCC2)c1Cl,200,2.51,6030,12000
c1cc(CN2CCCNCCNCCCNCC2)ccc1CN1CCCNCCCNCCCNCC1,,,,225000
C1CNCCNCCCN(CCN2CCCNCCNCCCNCC2)CCNC1,11200,,,404000
NCCCNCCNCCCNCc1ccc(CN2CCCNCCNCCCNCC2)cc1,372,708,,445000

# Continued, in another order:
EC50 [1] [nM],EC50 [2] [nM],EC50 [3] [nM],SMILES,CC50 (HuT78) [nM]
16600,,,c1cc(CN2CCCNCCCNCCCNCCC2)cc(CN2CCCNCCCNCCCNCCC2)c1,193000
85.1,53.7,,Brc1cc(CN2CCCNCCNCCCNCC2)cc(CN2CCCNCCNCCCNCC2)c1,192000
33.9,41.7,4170,c1cc(CN2CCCNCCNCCCNCC2)cc(CN2CCCNCCNCCCNCC2)c1,422000
85.1,759,,c1cc(CN2CCCNCCCNCCNCCC2)cc(CN2CCCNCCNCCCNCC2)c1,422000
97.7,66.1,8130,c1cc(CN2CCCNCCNCCCNCC2)nc(CN2CCCNCCNCCCNCC2)c1,409000
204,24.5,316,c1ccc(-c2cc(CN3CCCNCCNCCCNCC3)cc(CN3CCCNCCNCCCNCC3)c2)cc1,198000
31.6,70.8,,c1ncc(CN2CCCNCCNCCCNCC2)cc1CN1CCCNCCNCCCNCC1,395000
324,646,,c1cc(CN2CCCNCCCNCCNCCC2)cc(CN2CCCNCCCNCCNCCC2)c1,403000
7.94,56.2,12.6,c1cc(CN2CCCNCCNCCCNCC2)ccc1CN1CCCNCCNCCNCCC1,500000
40.7,61.7,,c1cc(CN2CCNCCCNCCNCC2)cc(CN2CCNCCCNCCNCC2)c1,192000
138,245,,Brc1c(CN2CCCNCCNCCCNCC2)cccc1CN1CCCNCCNCCCNCC1,144000
64.6,72.4,3240,O=[N+]([O-])c1cc(CN2CCCNCCNCCCNCC2)ccc1CN1CCCNCCNCCCNCC1,203000
2750,,,c1cc(CN2CCCNCCCNCCCNCC2)cc(CN2CCCNCCCNCCCNCC2)c1,191000
40.7,56.2,64.6,O=[N+]([O-])c1cc(CN2CCCNCCNCCCNCC2)cc(CN2CCCNCCNCCCNCC2)c1,45000
158,79.4,,c1ccc2c(CN3CCCNCCNCCCNCC3)cc(CN3CCCNCCNCCCNCC3)cc2c1,208000
1350,,,c1ccc(CN2CCCNCCNCCCNCC2)c(CN2CCCNCCNCCCNCC2)c1,169000
34.7,74.1,,Fc1c(CN2CCCNCCNCCCNCC2)cccc1CN1CCCNCCNCCCNCC1,202000
3.98,6.03,47.9,c1cc(CN2CCCNCCNCCCNCC2)ccc1CN1CCCNCCNCCCNCC1 [PLERIXAFOR],241000
